In patent US20040197396A1, “Anhydrous crystal form of valaciclovir hydrochloride” (priority 2001, published 2004):
Where a name gives a salt, the structure may show the parent alone.

How the values were obtained:
[1] = Thermogravimetric analysis (TGA); format: physicochemical; conditions: from 182-310° C.; scan rate 10° C. per minute
Protocol: Thermogravimetric analysis was carried out on a Perkin-Elmer Pyris-1 TGA system. Scan rate of 10° C. per minute. Sample size 3.757 mg. The TGA trace is provided at FIG. 6.

[2] = Water content by Karl Fisher titration; format: physicochemical; conditions: Example 11 sample
Protocol: The water of hydration content is measured by the Karl Fischer method which is well known in the art and is described in the 1990 US Pharmacopoeia at pages 1619-1621, and the European Pharmacopoeia, second edition (1992) part 2, sixteenth fascicule at v. 3.5-6.1. Water content (by Karl Fisher titration): 0.61% w/w

[3] = Stability and hygroscopicity of the crystal form (stated, no method); format: physicochemical; conditions: statement in words
[4] = relative to acyclovir; statement in words; cited from earlier work

Weight loss associated with melting/decomposition [1] [% w/w]	Water content (by Karl Fisher titration) [2] [% w/w]	Hygroscopicity [3]	Stability of the crystal form [3]	SMILES	Bioavailability [4]
42.97	0.61	essentially non-hygroscopic	stable	CC(C)[C@H](N)C(=O)OCCOCn1cnc2c(=O)[nH]c(N)nc21 [Form 2 Valaciclovir Hydrochloride, valaciclovir hydrochloride]	
				CC(C)[C@H](N)C(=O)OCCOCn1cnc2c(=O)[nH]c(N)nc21 [valaciclovir]	much improved bioavailability
